Test results from BigSolDB 2.1.

CC(=O)C1=CC[C@H]2[C@@H]3CCC4=CC(=O)C=C[C@]4(C)[C@H]3[C@@H](O)C[C@]12C
solubility (mole fraction)
Settings | in acetone | in ethanol
298.15 K | 0.00192 | 0.00213
303.15 K | 0.00215 | 0.00252
308.15 K | 0.00243 | 0.00291
313.15 K | 0.00275 | 0.00335
318.15 K | 0.00303 | 0.00395
323.15 K | 0.00351 | 0.00461
328.15 K | 0.0038 | 0.00541
333.15 K | – | 0.00625
338.15 K | – | 0.00722
343.15 K | – | 0.00844
348.15 K | – | 0.0097
